Source: PubChem BioAssay (NCI)
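Method: 48-hour compound exposure of cells in 96-well plates, five concentrations, linear interpolation of endpoints. TGI marks complete inhibition of growth.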

Experiments:
Assay in all cases: NCI tumour cell line growth inhibition, 48 h
[1] = system: A549 NSCLC
[2] = system: CCRF-CEM leukemia
[3] = system: DU-145 prostate
[4] = system: KM12 colon
[5] = system: NCI-H226 lung
[6] = system: PC-3 prostate
[7] = system: SN12C renal
[8] = system: SNB-19 CNS
[9] = system: SF-539 CNS

Compound: CC(=O)OCC(=O)OC[C@H](OCc1ccccc1)[C@@H]1[C@H](OC(C)=O)C(=O)N1Cc1ccccc1
- TGI [1]: > 100 µM
- TGI [2]: > 100 µM
- TGI [3]: > 100 µM
- TGI [4]: > 100 µM
- TGI [5]: > 100 µM
- TGI [6]: > 100 µM
- TGI [7]: > 100 µM
- TGI [8]: > 100 µM

Compound: O=[S@]1c2ccc3ccccc3c2N[C@@H]2[C@H]1[C@H]1C=C[C@@H]2C1
- TGI [1]: > 100 µM
- TGI [2]: 68.4 µM
- TGI [3]: > 100 µM
- TGI [4]: > 100 µM
- TGI [5]: > 100 µM
- TGI [6]: > 100 µM
- TGI [9]: > 100 µM
- TGI [7]: > 100 µM
- TGI [8]: > 100 µM

Compound: O=C1CC(CC(=O)c2ccc(Br)cc2)C(=O)/C1=C(/O)c1ccc(Br)cc1 (stereo not given)
- TGI [1]: > 100 µM
- TGI [2]: > 100 µM
- TGI [3]: > 100 µM
- TGI [4]: > 100 µM
- TGI [5]: > 100 µM
- TGI [6]: > 100 µM
- TGI [9]: > 100 µM
- TGI [7]: > 100 µM
- TGI [8]: > 100 µM

Compound: CC1=CC[C@@]2(C)CC[C@](O)(C(C)C)C2C(OC(=O)c2ccccc2)C1 (stereo not given in full)
- TGI [1]: 37.3 µM
- TGI [2]: 54.7 µM
- TGI [3]: 32.5 µM
- TGI [4]: 40.3 µM
- TGI [5]: 45.3 µM
- TGI [6]: 45.6 µM
- TGI [9]: 37.4 µM
- TGI [7]: 44.9 µM
- TGI [8]: 40.5 µM

Compound: CCC(C)[C@@H](Nc1c(O)c2c(c(O)c1Cl)C(=O)C=CC2=O)C(=O)OC (stereo not given in full)
- TGI [1]: > 10 µM
- TGI [2]: 4.98 µM
- TGI [3]: > 10 µM
- TGI [4]: > 10 µM
- TGI [5]: > 10 µM
- TGI [6]: > 10 µM
- TGI [9]: > 10 µM
- TGI [7]: > 10 µM
- TGI [8]: > 10 µM

Compound: COc1c(C(=O)NCCN(CCNC(=O)c2cccc(-c3cccc(C(=O)N(C)C)c3OC)c2OC)CCNC(=O)c2cccc(-c3cccc(C(=O)N(C)C)c3OC)c2OC)cccc1-c1cccc(C(=O)N(C)C)c1OC
- TGI [1]: > 100 µM
- TGI [2]: 72.7 µM
- TGI [3]: > 100 µM
- TGI [4]: 31.6 µM
- TGI [5]: 36.6 µM
- TGI [6]: > 100 µM
- TGI [9]: 36.2 µM
- TGI [7]: > 100 µM
- TGI [8]: > 100 µM

Compound: COc1ccc(OC)c2c1C=CC(Br)=CC2
- TGI [1]: > 1 µM
- TGI [2]: > 1 µM
- TGI [3]: > 1 µM
- TGI [4]: 0.85 µM
- TGI [5]: > 1 µM
- TGI [6]: > 1 µM
- TGI [9]: > 1 µM
- TGI [7]: > 1 µM
- TGI [8]: > 1 µM

Compound: COC(=O)c1cc(NC(=O)Cc2c[nH]c3ccccc23)cn1C
- TGI [1]: > 100 µM
- TGI [2]: > 100 µM
- TGI [3]: > 100 µM
- TGI [4]: > 100 µM
- TGI [5]: > 100 µM
- TGI [6]: > 100 µM
- TGI [9]: > 100 µM
- TGI [7]: > 100 µM
- TGI [8]: > 100 µM

Compound: CCOC(=O)/C=C(/C(=O)OCC)n1ccc(=O)n(Cc2cnnn2COCCOC(C)=O)c1=O
- TGI [1]: > 100 µM
- TGI [2]: 3.57 µM
- TGI [3]: 42.9 µM
- TGI [4]: > 56.4 µM
- TGI [5]: 57.3 µM
- TGI [6]: 34.2 µM
- TGI [9]: 25.7 µM
- TGI [7]: 47.9 µM
- TGI [8]: > 31.6 µM

Compound: CCN(CC)CCN(C)c1ccc(CO)c2c1C(=O)c1ccccc1S2=O (stereo not given)
- TGI [1]: 25.6 µM
- TGI [2]: 9.96 µM
- TGI [3]: 28.3 µM
- TGI [4]: 4.55 µM
- TGI [5]: 33.6 µM
- TGI [6]: 46 µM
- TGI [9]: 3.61 µM
- TGI [7]: 28.9 µM
- TGI [8]: 26.9 µM

Compound: COc1ccc2c(c1)CCCN1CCc3ccccc3C21 (stereo not given)
- TGI [1]: > 100 µM
- TGI [2]: > 100 µM
- TGI [3]: > 100 µM
- TGI [4]: > 100 µM
- TGI [5]: 80 µM
- TGI [6]: > 100 µM
- TGI [9]: 75.8 µM
- TGI [7]: 77.7 µM
- TGI [8]: > 100 µM

Compound: O=C1CCc2ccc(O)c(c2)Oc2ccc(cc2)C(Sc2ccccc2)CCO1 (stereo not given)
- TGI [1]: 59 µM
- TGI [2]: > 100 µM
- TGI [3]: 46.6 µM
- TGI [4]: 29.5 µM
- TGI [5]: 30.2 µM
- TGI [6]: 35.1 µM
- TGI [9]: 31.4 µM
- TGI [7]: 29.7 µM
- TGI [8]: 39.8 µM

Compound: COC(=O)/C=C1/OC(c2ccccc2)=C(C)C1=O
- TGI [2]: > 100 µM
- TGI [3]: 33.6 µM
- TGI [4]: 27.1 µM
- TGI [5]: 38.6 µM
- TGI [9]: 32.2 µM
- TGI [8]: 30.5 µM

Compound: CC(=O)NCC1OC2COC(c3ccccc3)OC2C(NC(=O)c2ccccc2)C1OC(=O)c1ccccc1 (stereo not given)
- TGI [1]: > 100 µM
- TGI [2]: > 100 µM
- TGI [3]: > 100 µM
- TGI [4]: > 100 µM
- TGI [5]: > 100 µM
- TGI [6]: > 100 µM
- TGI [9]: > 100 µM
- TGI [7]: > 100 µM
- TGI [8]: > 100 µM

Compound: CCOP(=O)(OCC)C(NC(=O)C(C(F)(F)F)C(F)(F)F)c1ccccc1 (stereo not given)
- TGI [1]: > 100 µM
- TGI [2]: > 100 µM
- TGI [3]: > 100 µM
- TGI [4]: > 100 µM
- TGI [6]: > 100 µM
- TGI [9]: > 100 µM
- TGI [7]: > 100 µM
- TGI [8]: > 100 µM

Compound: CCCSc1ccc2[nH]c(N3C(=O)/C(=C/c4ccc(SC)cc4)N=C3c3ccccc3)cc2c1
- TGI [1]: > 50 µM
- TGI [2]: > 45.8 µM
- TGI [3]: > 50 µM
- TGI [4]: 32.7 µM
- TGI [5]: > 50 µM
- TGI [6]: > 50 µM
- TGI [9]: 48.8 µM
- TGI [7]: > 50 µM
- TGI [8]: > 50 µM

Compound: CC(=O)c1ccc2c(c1)CC1(C2)Cc2cc3c(c(C(=O)O)c2C1)CCC3 (stereo not given)
- TGI [1]: > 100 µM
- TGI [2]: > 100 µM
- TGI [3]: > 100 µM
- TGI [4]: > 100 µM
- TGI [5]: > 100 µM
- TGI [6]: > 100 µM
- TGI [9]: > 100 µM
- TGI [7]: > 100 µM

Compound: CC1=C(O)c2ccccc2C(=O)C1=O
- TGI [1]: > 100 µM
- TGI [2]: > 100 µM
- TGI [3]: > 100 µM
- TGI [4]: > 100 µM
- TGI [5]: > 100 µM
- TGI [6]: > 100 µM
- TGI [9]: > 100 µM
- TGI [7]: > 100 µM
- TGI [8]: > 100 µM

Compound: NC1CCC(N(CC(=O)O)CC(=O)O)C(N(CC(=O)O)CC(=O)O)C1 (stereo not given)
- TGI [1]: > 100 µM
- TGI [2]: > 100 µM
- TGI [3]: > 100 µM
- TGI [4]: > 100 µM
- TGI [5]: > 100 µM
- TGI [6]: > 100 µM
- TGI [9]: > 100 µM
- TGI [7]: > 100 µM
- TGI [8]: > 100 µM

Compound: CSc1nc2c(c(=O)n1C)N=C(c1ccc([N+](=O)[O-])cc1)CC(c1ccccc1)N2 (stereo not given)
- TGI [1]: > 100 µM
- TGI [2]: > 100 µM
- TGI [3]: > 100 µM
- TGI [4]: > 100 µM
- TGI [5]: > 100 µM
- TGI [6]: > 100 µM
- TGI [9]: > 100 µM
- TGI [7]: > 100 µM
- TGI [8]: > 100 µM

Compound: CCOC(=O)c1nc2cc(C(F)(F)F)ccc2nc1Nc1ccc(C(=O)OC)s1
- TGI [1]: > 100 µM
- TGI [2]: > 100 µM
- TGI [3]: > 100 µM
- TGI [4]: > 100 µM
- TGI [5]: 87.3 µM
- TGI [6]: > 100 µM
- TGI [8]: > 100 µM

Compound: CCC1(c2ccc(N3C(=O)c4cc(OC)c(OC)cc4C3=O)cc2)CCC(=O)NC1=O (stereo not given)
- TGI [1]: > 10 µM
- TGI [2]: > 10 µM
- TGI [3]: > 10 µM
- TGI [4]: > 10 µM
- TGI [5]: > 10 µM
- TGI [6]: > 10 µM
- TGI [9]: > 10 µM
- TGI [7]: > 10 µM
- TGI [8]: > 10 µM
